In patent publication US20240248101A1 (The United States of America, as represented by the …, priority 2021, published 2024):
“And” between values parts separate entries of the source, which are not always exact repeats. Identical values can stand only once.

What was measured:
[1] = Vitamin C depletion-repletion pharmacokinetic study: renal threshold and minimal elimination threshold (PBPK and PCF modelling); type: in vivo, human; details: for vitamin C renal threshold, Population Curve Fitting (PCF): population estimate
Description: Renal threshold was estimated using physiology-based pharmacokinetics modeling. […] Mice knockout models were used for proof-of-concept studies. Vitamin C was measured using coulometric electrochemical detection with high performance liquid chromatography.
Pharmacokinetics components of depletion-repletion study design have been described previously (see supplementary methods). The protocol was approved by the Institutional Review Board, National Institutes of Diabetes and Digestive and Kidney diseases (NIDDK), National Institutes of Health (NIH).
Participants, Interventions: Healthy men and women aged 18 to 35 years without any acute or chronic medical conditions. Details on eligibility and study interventions are described in supplementary methods.
Full details regarding studying outcomes and analyses are provided in supplementary methods. […] Each subject had 5-7 oral and intravenous pharmacokinetic studies over a 13-fold or greater dose range. Data from the NIH depletion study in men and women were used to estimate the vitamin C renal threshold by two different methods: physiology-based pharmacokinetics modeling (PBPK), and population curve fitting with empirical functions (PCF). […] Based on data from healthy men, this model facilitated description of pharmacokinetics-time profiles of vitamin C in plasma, urine, and tissues simultaneously. Goodness of fit analyses support the use of this model to data from healthy women. For population curve fitting (PCF), plasma and urine values were analyzed using nonlinear mixed-effect modeling. PCF fits empirical functions to data from all subjects of each sex to estimate the renal threshold for that population of men and women. Using PBPK analyses, minimal elimination threshold (MET) was defined as that plasma concentration 2 standard deviations below the mean renal threshold for men and for women based on guidelines for estimating dietary reference intakes. […] (see supplementary methods).
Because urine samples collected at variable intervals were not synchronized with plasma samples, the time at which vitamin C first appears in the urine or when vitamin C urinary elimination became zero could not be determined from raw data alone. […] Using the data from the NIH depletion repletion study, vitamin C renal threshold was estimated by two different methods: Physiology-Based Pharmacokinetics model (PBPK) and population curve fitting (PCF).
Goodness of fit analysis support the use of the pharmacokinetics model to data collected from 15 normal women. […] When the amount of filtered vitamin C exceeds renal tubular reabsorptive capacity, vitamin C appears in the urine. The point at which renal threshold is reached (when filtration and reabsorption are in equilibrium) can be represented as
The Cplasma that fulfill the above equation is the plasma concentration threshold (renal threshold). At which time, the rate of vitamin C dispense into the tubule equals zero. The equation 2 can be rearranged as
Different non-parametric empirical functions were explored to best describe the combined urine data versus plasma vitamin C value of all subjects. After the structure function (model) was selected using goodness-of-fit assessments, plasma and urine data analyses were finalized using Nonlinear Mixed-Effect (MLME) modeling for population fit with S-Plus for Windows (version 8, Insightful Corp. Seattle, WA) to estimate the parameters account for inter-subject variabilities.
A Michealis-Menten equation (equation 4) was selected and fitted to data to estimate the parameters Vm and KM (maximum rate and Michaelis constant, respectively).
Initial estimate of Vm and KM were obtained by inspecting data plots. Goodness-of-fit was checked by visually inspecting the distribution of Standardized Residuals. If the goodness of fit was not acceptable, the initial parameters (Vm and KM) were changed and the resulting plot inspected again for distribution of residuals. […]

[2] = Vitamin C renal leak study in men with Fabry disease and healthy male controls (matched fasting plasma and 1 h urine); type: in vivo, human; details: for median fractional excretion of vitamin C (FeVC): all subjects
Text: Study design: This was a non-randomized cross-sectional cohort study aimed at investigating the prevalence and clinical characteristics of vitamin C renal leak in men with Fabry disease and healthy male controls. The protocols were approved by the Institutional Review Boards of NINDS and NIDDK, NIH.
Participants: Men with Fabry disease who were actively participating in NIH protocols evaluating the open label use of enzyme replacement therapy (ERT) in Fabry disease (95-N-0121, 00-N-0185 and 02-N-0220), ClinicalTrials.gov Identifiers: NCT00001491 and NCT00068107) were recruited. The male predominance in Fabry disease is based on the X-linked inheritance pattern. Accordingly, healthy men aged 18-58 were recruited on a rolling basis as controls for the Fabry cohort, under NIH protocol 04-DK-0021 (arm 3). Exclusion criteria included acute or chronic illness, alcohol abuse or tobacco use.
Matched urine and plasma vitamin C measurements: Following an overnight fast, on the morning of study, subjects were instructed to empty their bladder. […] Following the initial spot urine collection, subjects were hospitalized for another 24 hours. They consumed a hospital diet free of supplements or foods items with no or low vitamin C content. On morning of day 2, collection of all voided urine for 24 hours (termed 24 h urine) was obtained and subjects were discharged home.
Primary endpoint was the prevalence of vitamin C renal leak in the Fabry's cohort compared with healthy controls. Renal leak status (leak vs no leak) was determined using criteria described in depletion-repletion studies above. […] To address this limitation, renal leak was also expressed as fractional excretion of vitamin C (FeVC) defined as follows: […]
Following an overnight fast, on the morning of study, subjects were instructed to empty their bladder. […] Subjects could watch TV, read, take naps, or rest in any other way they choose. […]

[3] = Vitamin C renal leak study in diabetic cohort, nondiabetic controls and healthy subgroup (matched fasting plasma and 1 h urine); type: in vivo, human; details: for Plasma Vitamin C Concentration (mean): fasting
Description: Vitamin C in plasma and urine was measured using coulometric electrochemical detection with high performance liquid chromatography.
Study design: This was a non-randomized cross-sectional cohort outpatient study aimed at investigating the prevalence and clinical characteristics of vitamin C renal leak in a cohort of individuals with diabetes and non-diabetic controls. The protocol was approved by the Institutional Review Boards of NIDDK, NIH.
Participants and Recruitment: The study included a cohort of diabetic and non-diabetic individuals aged 18-65, without known acute or chronic medical conditions other than complications of diabetes mellitus or metabolic syndrome. Exclusion criteria included presence of an acute or chronic illness, alcohol abuse or tobacco use and pregnancy.
Subjects were also instructed to avoid food or drinks (other than water and medications) after midnight, prior to study sampling day. On morning of study sampling, subjects were admitted to the NIH CRC's metabolic unit as outpatients. They were instructed to empty their bladder. […] Subjects were subsequently provided with a meal and discharged home.
Study Groups and Comparators for Analyses: Three groups of participants who met the inclusion and exclusion criteria were used for data analyses: diabetic cohort, nondiabetic control group and healthy subgroup. The diabetic cohort was comprised of men and women with type 1 or type 2 diabetes. The nondiabetic control group was made up of individuals without diabetes and were not taking any chronic medications. To investigate unknown factors associated with renal leak, related and unrelated to diabetes, the study exclusion criteria was non-restrictive to recruit a broad sampling of the population. Thus, the nondiabetic control group included asymptomatic subjects with abnormal laboratory values which not determined to be clinically significant during the screening evaluation. However, inclusion of individuals with abnormal laboratory values in the non-diabetic control group could confound study findings. To address this concern, a post-hoc healthy subgroup of the nondiabetic control group without abnormal laboratory findings was identified. Primary comparative analysis was between the diabetic group vs nondiabetic control group. The diabetic group was secondarily compared with the healthy subgroup to assess for discordant findings.
This binary criterion is a qualitative measure indicating the presence or absence of a renal leak in a subject. The prevalence of renal leak was calculated as the proportion of leakers in each population cohort.
FeVC is a quantitative measure that describes the degree and magnitude of a renal leak. The formula for calculating FeVC is shown below: […]
Sample collection and vitamin C assay: Urine and plasma vitamin C were analyzed by HPLC with coulometric electrochemical detection. Other blood and urine chemistry measurements were performed, using standard laboratory methods, by the department of laboratory medicine Clinical Laboratory Improvement Amendments (CLIA) identification number: 21D0665373, Clinical Research Center, National Institutes of Health.

[4] = Plasma and urine vitamin C in gulo-/- mice given vitamin C in drinking water; type: in vivo, mouse; details: gulo-/- mice of both sexes, vitamin C 0 to 5000 mg/L in drinking water
Description: Values represent means+/−SDs. All mice were maintained at each dose for one week before blood and urine sampling.
Animal experiments were approved by the Animal Care and Use Committee NIDDK, NIH, and were conducted in accordance with NIH guidelines. Mice were 10-14-week-old males and females with free access to food and water and were maintained on a regular chow diet (NIH-07) without detectable ascorbate (detection limit 10 nM). Mice type were gulo^−/− and SVCT1^−/−. […] To maintain the mice, vitamin C was provided via drinking water, which was changed daily.
Plasma and RBCs were from mouse whole blood as described. Urine was collected at the same time as the blood by gentle abdominal pressure.
Blood and urine samples were collected on ice and processed promptly. All samples were stored at −80 C and assayed together by HPLC as previously described.

Minimal Elimination Threshold (MET), 2SD below mean renal threshold using PBPK ([1]; healthy men): 38.1 µM
vitamin C renal threshold, PBPK, Mean (SD) ([1]; healthy men, n = 7): 48.5(5.2) μM
vitamin C renal threshold, PBPK, Mean (SD) ([1]; healthy men, n = 7, listed as Vitamin C): 48.5 μM and 48.5 (5.2) μM
vitamin C renal threshold, Population Curve Fitting (PCF) ([1]; healthy men): 48.3 µM and 48.28 µM
vitamin C renal threshold, Population Curve Fitting (PCF) ([1]; healthy men, listed as Vitamin C): 48.3 µM
Minimal Elimination Threshold (MET), 2SD below mean renal threshold using PBPK ([1]; healthy women): 43.2 µM
vitamin C renal threshold, PBPK, Mean (SD) ([1]; healthy women, n = 10): 58.3(7.5) μM
vitamin C renal threshold, PBPK, Mean (SD) ([1]; healthy women, n = 10, listed as Vitamin C): 58.3 μM and 58.3 (7.5) μM
vitamin C renal threshold, Population Curve Fitting (PCF) ([1]; healthy women): 60.4 µM and 60.39 µM
vitamin C renal threshold, Population Curve Fitting (PCF) ([1]; healthy women, listed as Vitamin C): 60.4 µM
mean plasma vitamin C concentration ([2]; Fabry cohort and healthy controls after 3-week low vitamin C diet, order of cohorts not stated): 38.9 µM and 36.5 µM
median fractional excretion of vitamin C (FeVC) ([2]; healthy male controls): 0
median fractional excretion of vitamin C (FeVC) ([2]; men with Fabry disease): 0.018
Median FeVC ([3]; Diabetic Cohort, All Subjects): 0.00032
Median FeVC ([3]; Diabetic Cohort, Plasma Vit C < MET): 0.00015
Median FeVC ([3]; Diabetic Cohort, Plasma Vit C ≥ MET): 0.0012 and 0.00122
Plasma Vitamin C Concentration (mean) ([3]; Diabetic Cohort, table part adjusted for sex/gender): 40.9 µM
Plasma Vitamin C Concentration (mean) ([3]; Diabetic Cohort, un-adjusted for sex/gender): 40.9 µM
Median FeVC ([3]; Healthy Subgroup, All Subjects): 0.00046
Median FeVC ([3]; Healthy Subgroup, Plasma Vit C < MET): 0
Median FeVC ([3]; Healthy Subgroup, Plasma Vit C ≥ MET): 0.00046
Plasma Vitamin C Concentration (mean) ([3]; Healthy Subgroup, table part adjusted for sex/gender): 57.1 µM
Plasma Vitamin C Concentration (mean) ([3]; Healthy Subgroup, un-adjusted for sex/gender): 57.1 µM
Median FeVC ([3]; Non-Diabetic Control, All Subjects): 0.00044
Median FeVC ([3]; Non-Diabetic Control, Plasma Vit C < MET): 0.0000
Median FeVC ([3]; Non-Diabetic Control, Plasma Vit C ≥ MET): 0.0010
Plasma Vitamin C Concentration (mean) ([3]; Non-Diabetic Control, table part adjusted for sex/gender): 53.1 µM
Plasma Vitamin C Concentration (mean) ([3]; Non-Diabetic Control, un-adjusted for sex/gender): 53.1 µM
plasma vitamin C concentration below which no vitamin C was found in urine (renal threshold) [4]: 55 µM
Structure (SMILES): O=C1O[C@H]([C@@H](O)CO)C(O)=C1O [vitamin C]
vitamin C renal threshold, Pharmacokinetic Modeling (PBPK), individual estimates ([1]; healthy men, individual subjects M1-M7, plasma concentration at which vitamin C first appears in urine): 52 μM and 51 μM and 40 μM and 56 μM and 45 μM (2×) and 50 μM
vitamin C renal threshold, Pharmacokinetic Modeling (PBPK), individual estimates ([1]; healthy women, individual subjects W1-W10): 54 μM (3×) and 67 μM and 57 μM and 64 μM and 63 μM and 45 μM and 70 μM and 55 μM
